From publication PMC5766581, “NF-κB inducing kinase is a therapeutic target for systemic lupus erythematosus” (Nature Communications, 2018)
Values joined by “and” are separate entries in the source; they are usually repeats but may differ in a detail not shown here. Identical values can stand only once.

Legend:
Assay in all cases: SelectScreen kinase panel
Format in all cases: biochemical
AKT1 = target: T1, AKT1 (Homo sapiens, UniProt P31749)
T1 construct: purchased Invitrogen / ThermoFisher SelectScreen
T1 sequence (P31749 whole entry): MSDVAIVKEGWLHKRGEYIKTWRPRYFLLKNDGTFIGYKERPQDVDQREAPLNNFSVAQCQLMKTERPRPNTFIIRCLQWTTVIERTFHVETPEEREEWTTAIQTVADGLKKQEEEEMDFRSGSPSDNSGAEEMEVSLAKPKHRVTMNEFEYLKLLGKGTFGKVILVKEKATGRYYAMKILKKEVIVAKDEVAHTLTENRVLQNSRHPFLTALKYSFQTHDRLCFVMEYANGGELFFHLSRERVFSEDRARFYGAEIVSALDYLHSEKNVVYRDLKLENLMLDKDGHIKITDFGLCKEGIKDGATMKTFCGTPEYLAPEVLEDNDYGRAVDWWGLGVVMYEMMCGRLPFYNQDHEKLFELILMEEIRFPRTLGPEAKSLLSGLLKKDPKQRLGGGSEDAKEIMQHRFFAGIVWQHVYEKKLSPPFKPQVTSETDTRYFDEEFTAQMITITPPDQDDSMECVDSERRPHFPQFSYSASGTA
Procedure: (§1) The ability of NIK to catalyze the hydrolysis of adenosine-5′-triphosphate (ATP) was monitored using the Transcreener ADP (adenosine-5′-diphosphate) assay (Bell Brook Labs, Fitchburg, WI). Purified human NIK kinase domain (a.a. 340–694) (0.5 nM) or mouse NIK kinase domain (a.a. 329–675) (1 nM) derived from a baculovirus-infected insect cell expression system was incubated with test compounds for 0.5–2 h in 50 mM HEPES buffer (pH 7.2) containing 10 mM MgCl2, 2 mM dithiothreitol, 10 μM ATP, 0.01% Triton X-100, 0.1% gamma-globulins from bovine blood, 1% dimethylsulfoxide (DMSO), 7 μg/mL ADP antibody and 5 nM ADP-MR121 633 tracer. Reactions were quenched by the addition of 20 mM EDTA and 0.01% Brij 35. The tracer bound to the antibody was displaced by the ADP generated during the NIK reaction, which caused a decrease in fluorescence polarization that was measured by laser excitation at 633 nm with a Fluorescence Correlation Spectroscopy Plus reader (Evotec AG). Equilibrium dissociation constant (Ki) values for NIK inhibitors are calculated from plots of activity vs. inhibitor concentration using Morrison’s quadratic equation that accounts for the potential of tight binding, and by also applying the conversion factor that accounted for competitive inhibition and the concentration of substrate used in the assay relative to its Michaelis constant (Km). The Ki values with hPKD1 (PKCμ) were determined using the same assay conditions as for NIK. Ki measurements for hKHS1 and hLRRK2, as well as broad kinase selectivity profiling for SMI1, were carried out by Invitrogen using their SelectScreen kinase assay panel (ThermoFisher Scientific, Madison, WI). The vendor offered two types of kinase activity assays, a peptide phosphorylation assay (Z′-LYTE) and an ADP quantitation assay (Adapta), as well as one type of kinase ATP site competitive binding assay (LanthaScreen). See vendor web site for technology and protocol details for each specific kinase assay.
(§2) The average % Inhibition of each kinase is reported (Supplementary Table 1).

AKT2 = target: T2, AKT2 (Homo sapiens, UniProt P31751)
T2 construct: purchased Invitrogen / ThermoFisher SelectScreen
T2 sequence (P31751 whole entry): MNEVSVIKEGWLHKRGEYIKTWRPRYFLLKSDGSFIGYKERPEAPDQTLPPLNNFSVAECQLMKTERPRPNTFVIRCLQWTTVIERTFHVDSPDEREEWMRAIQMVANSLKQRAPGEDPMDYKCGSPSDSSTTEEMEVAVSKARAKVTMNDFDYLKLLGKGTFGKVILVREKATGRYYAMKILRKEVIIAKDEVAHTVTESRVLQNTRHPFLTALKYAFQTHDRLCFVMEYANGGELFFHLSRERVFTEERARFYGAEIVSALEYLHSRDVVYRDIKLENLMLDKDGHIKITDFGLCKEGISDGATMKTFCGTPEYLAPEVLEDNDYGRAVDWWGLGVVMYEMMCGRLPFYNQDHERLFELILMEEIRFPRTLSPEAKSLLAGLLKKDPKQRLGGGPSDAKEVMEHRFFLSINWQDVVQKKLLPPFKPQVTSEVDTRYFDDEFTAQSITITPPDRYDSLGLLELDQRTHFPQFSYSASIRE
Procedure: as §1, §2

CDK1/cyclinB = target: T3, CDK1/cyclinB (Homo sapiens, UniProt P06493)
T3 construct: purchased Invitrogen / ThermoFisher SelectScreen
Procedure: as §1, §2

CK1_epsilon1 = target: T4, CK1_epsilon1 (Homo sapiens, UniProt P49674)
T4 construct: purchased Invitrogen / ThermoFisher SelectScreen
Procedure: as §1, §2

CK1_gamma2 = target: T5, CK1_gamma2 (Homo sapiens, UniProt P78368)
T5 construct: purchased Invitrogen / ThermoFisher SelectScreen
Procedure: as §1, §2

CK2_alpha1 = target: T6, CK2_alpha1 (Homo sapiens, UniProt P68400)
T6 construct: purchased Invitrogen / ThermoFisher SelectScreen
T6 sequence (P68400 whole entry): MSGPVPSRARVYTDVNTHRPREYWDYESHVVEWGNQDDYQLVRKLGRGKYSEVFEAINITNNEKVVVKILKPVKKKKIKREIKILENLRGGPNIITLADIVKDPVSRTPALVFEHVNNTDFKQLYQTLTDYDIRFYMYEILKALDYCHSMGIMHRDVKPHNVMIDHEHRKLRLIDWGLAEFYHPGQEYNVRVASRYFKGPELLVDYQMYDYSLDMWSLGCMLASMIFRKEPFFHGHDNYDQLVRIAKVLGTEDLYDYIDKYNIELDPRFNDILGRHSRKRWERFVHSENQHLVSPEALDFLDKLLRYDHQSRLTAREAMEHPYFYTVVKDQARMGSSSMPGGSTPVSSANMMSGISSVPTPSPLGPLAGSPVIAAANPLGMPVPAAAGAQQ
Procedure: as §1, §2

CLK1 = target: T7, CLK1 (Homo sapiens, UniProt P49759)
T7 construct: purchased Invitrogen / ThermoFisher SelectScreen
Procedure: as §1, §2

CLK2 = target: T8, CLK2 (Homo sapiens, UniProt P49760)
T8 construct: purchased Invitrogen / ThermoFisher SelectScreen
Procedure: as §1, §2

CamKIV = target: T9, CamKIV (Homo sapiens, UniProt Q16566)
T9 construct: purchased Invitrogen / ThermoFisher SelectScreen
Procedure: as §1, §2

DAPK1 = target: T10, DAPK1 (Homo sapiens, UniProt P53355)
T10 construct: purchased Invitrogen / ThermoFisher SelectScreen
Procedure: as §1, §2

DCAMKL2 = target: T11, DCAMKL2 (Homo sapiens, UniProt Q8N568)
T11 construct: purchased Invitrogen / ThermoFisher SelectScreen
Procedure: as §1, §2

EphA1 = target: T12, EphA1 (Homo sapiens, UniProt P21709)
T12 construct: purchased Invitrogen / ThermoFisher SelectScreen
Procedure: as §1, §2

Flt4 = target: T13, Flt4 (Homo sapiens, UniProt P35916)
T13 construct: purchased Invitrogen / ThermoFisher SelectScreen
Procedure: as §1, §2

GRK6 = target: T14, GRK6 (Homo sapiens, UniProt P43250)
T14 construct: purchased Invitrogen / ThermoFisher SelectScreen
Procedure: as §1, §2

IKK_epsilon = target: T15, IKK_epsilon (Homo sapiens, UniProt Q14164)
T15 construct: purchased Invitrogen / ThermoFisher SelectScreen
Procedure: as §1, §2

IRAK1 = target: T16, IRAK1 (Homo sapiens, UniProt P51617)
T16 construct: purchased Invitrogen / ThermoFisher SelectScreen
Procedure: as §1, §2

IRAK4 = target: T17, IRAK4 (Homo sapiens, UniProt Q9NWZ3)
T17 construct: purchased Invitrogen / ThermoFisher SelectScreen
T17 sequence (Q9NWZ3 whole entry): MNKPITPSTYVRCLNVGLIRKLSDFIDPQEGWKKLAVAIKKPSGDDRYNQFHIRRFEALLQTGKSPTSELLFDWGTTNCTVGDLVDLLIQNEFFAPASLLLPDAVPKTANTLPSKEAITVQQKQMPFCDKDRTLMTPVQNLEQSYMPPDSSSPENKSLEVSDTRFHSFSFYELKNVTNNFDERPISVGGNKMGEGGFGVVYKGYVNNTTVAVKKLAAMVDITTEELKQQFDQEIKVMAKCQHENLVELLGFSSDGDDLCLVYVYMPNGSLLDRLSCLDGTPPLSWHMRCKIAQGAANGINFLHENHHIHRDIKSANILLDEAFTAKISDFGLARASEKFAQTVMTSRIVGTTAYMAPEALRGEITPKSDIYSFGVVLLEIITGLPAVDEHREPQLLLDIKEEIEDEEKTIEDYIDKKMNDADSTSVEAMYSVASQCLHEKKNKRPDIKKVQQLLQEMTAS
Procedure: as §1, §2

KHS1 = target: T18, KHS1 (Homo sapiens, UniProt Q9Y4K4); conditions: NIK SMI1 1 µM; ATP Km app
T18 construct: purchased Invitrogen / ThermoFisher SelectScreen
T18 sequence (Q9Y4K4 whole entry): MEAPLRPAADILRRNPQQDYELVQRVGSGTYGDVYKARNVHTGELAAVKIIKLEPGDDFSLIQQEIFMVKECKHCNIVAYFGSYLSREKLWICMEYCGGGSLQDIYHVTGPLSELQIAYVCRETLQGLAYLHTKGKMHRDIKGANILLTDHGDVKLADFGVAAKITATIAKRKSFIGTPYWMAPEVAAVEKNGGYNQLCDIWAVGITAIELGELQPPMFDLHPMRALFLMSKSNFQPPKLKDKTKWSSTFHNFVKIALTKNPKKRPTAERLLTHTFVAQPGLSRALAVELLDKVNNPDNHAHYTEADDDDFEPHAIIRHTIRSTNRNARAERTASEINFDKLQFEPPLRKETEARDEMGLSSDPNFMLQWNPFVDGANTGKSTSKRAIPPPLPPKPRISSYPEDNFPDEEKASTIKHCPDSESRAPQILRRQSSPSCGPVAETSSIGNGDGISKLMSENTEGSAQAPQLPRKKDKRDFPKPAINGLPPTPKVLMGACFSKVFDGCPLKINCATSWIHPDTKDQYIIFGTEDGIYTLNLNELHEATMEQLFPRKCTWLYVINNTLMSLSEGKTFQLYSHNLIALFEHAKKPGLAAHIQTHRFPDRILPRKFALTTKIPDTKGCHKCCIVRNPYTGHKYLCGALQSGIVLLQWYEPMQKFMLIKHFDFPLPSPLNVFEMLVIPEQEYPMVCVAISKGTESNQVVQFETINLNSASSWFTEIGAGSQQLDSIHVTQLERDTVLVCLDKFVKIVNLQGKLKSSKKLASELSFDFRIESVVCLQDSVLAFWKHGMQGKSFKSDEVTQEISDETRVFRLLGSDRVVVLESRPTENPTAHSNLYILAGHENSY
Procedure: as §1, §2

MRCK_alpha = target: T19, MRCK_alpha (Homo sapiens, UniProt Q5VT25)
T19 construct: purchased Invitrogen / ThermoFisher SelectScreen
Procedure: as §1, §2

Mer = target: T20, Mer (Homo sapiens, UniProt Q12866)
T20 construct: purchased Invitrogen / ThermoFisher SelectScreen
Procedure: as §1, §2

NEK4 = target: T21, NEK4 (Homo sapiens, UniProt P51957)
T21 construct: purchased Invitrogen / ThermoFisher SelectScreen
Procedure: as §1, §2

P38_delta = target: T22, P38_delta (Homo sapiens, UniProt O15264)
T22 construct: purchased Invitrogen / ThermoFisher SelectScreen
T22 sequence (O15264 whole entry): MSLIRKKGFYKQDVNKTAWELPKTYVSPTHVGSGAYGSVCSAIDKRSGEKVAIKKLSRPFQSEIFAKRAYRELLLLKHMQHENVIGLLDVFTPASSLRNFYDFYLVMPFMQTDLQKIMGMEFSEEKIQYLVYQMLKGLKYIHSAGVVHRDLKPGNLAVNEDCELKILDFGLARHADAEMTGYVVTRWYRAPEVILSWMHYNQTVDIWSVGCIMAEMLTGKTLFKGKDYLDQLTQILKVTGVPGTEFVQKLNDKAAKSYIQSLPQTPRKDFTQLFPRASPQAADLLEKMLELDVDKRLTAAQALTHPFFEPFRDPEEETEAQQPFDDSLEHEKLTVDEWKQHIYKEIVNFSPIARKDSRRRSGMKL
Procedure: as §1, §2

PAK6 = target: T23, PAK6 (Homo sapiens, UniProt Q9NQU5)
T23 construct: purchased Invitrogen / ThermoFisher SelectScreen
Procedure: as §1, §2

PI3K- A = target: T24, PI3K- A (Homo sapiens, UniProt P42336)
T24 construct: purchased Invitrogen / ThermoFisher SelectScreen
Procedure: as §1, §2

PKD1 = target: T25, PKD1 (Homo sapiens, UniProt Q15139); conditions: NIK SMI1 1 µM; ATP Km app
T25 construct: purchased Invitrogen / ThermoFisher SelectScreen
T25 sequence (Q15139 whole entry): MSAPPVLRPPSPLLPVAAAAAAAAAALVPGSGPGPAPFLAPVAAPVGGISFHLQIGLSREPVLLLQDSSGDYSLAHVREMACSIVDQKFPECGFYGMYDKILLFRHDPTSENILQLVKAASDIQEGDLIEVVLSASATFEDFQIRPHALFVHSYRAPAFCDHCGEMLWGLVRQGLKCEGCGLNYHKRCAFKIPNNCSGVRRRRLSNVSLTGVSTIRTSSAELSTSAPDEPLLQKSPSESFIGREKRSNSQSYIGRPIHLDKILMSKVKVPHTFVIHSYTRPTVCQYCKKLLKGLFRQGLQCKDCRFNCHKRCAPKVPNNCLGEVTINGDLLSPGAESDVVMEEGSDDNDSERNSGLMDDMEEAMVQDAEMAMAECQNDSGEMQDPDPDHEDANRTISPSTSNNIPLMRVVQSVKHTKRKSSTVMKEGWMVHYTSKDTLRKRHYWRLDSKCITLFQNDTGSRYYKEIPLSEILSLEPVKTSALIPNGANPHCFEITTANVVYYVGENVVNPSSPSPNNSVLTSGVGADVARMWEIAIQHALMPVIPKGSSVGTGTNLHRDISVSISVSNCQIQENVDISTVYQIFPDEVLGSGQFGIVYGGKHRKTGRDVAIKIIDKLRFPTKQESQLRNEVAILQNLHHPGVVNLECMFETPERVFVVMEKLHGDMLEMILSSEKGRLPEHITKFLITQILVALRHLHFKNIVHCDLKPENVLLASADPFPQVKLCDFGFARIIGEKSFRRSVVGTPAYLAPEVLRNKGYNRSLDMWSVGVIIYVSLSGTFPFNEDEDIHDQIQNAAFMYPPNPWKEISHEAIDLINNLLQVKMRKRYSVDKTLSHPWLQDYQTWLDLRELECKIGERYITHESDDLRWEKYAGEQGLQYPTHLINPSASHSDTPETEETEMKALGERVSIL
Procedure: as §1, §2

PKD2 = target: T26, PKD2 (Homo sapiens, UniProt Q9BZL6)
T26 construct: purchased Invitrogen / ThermoFisher SelectScreen
T26 sequence (Q9BZL6 whole entry): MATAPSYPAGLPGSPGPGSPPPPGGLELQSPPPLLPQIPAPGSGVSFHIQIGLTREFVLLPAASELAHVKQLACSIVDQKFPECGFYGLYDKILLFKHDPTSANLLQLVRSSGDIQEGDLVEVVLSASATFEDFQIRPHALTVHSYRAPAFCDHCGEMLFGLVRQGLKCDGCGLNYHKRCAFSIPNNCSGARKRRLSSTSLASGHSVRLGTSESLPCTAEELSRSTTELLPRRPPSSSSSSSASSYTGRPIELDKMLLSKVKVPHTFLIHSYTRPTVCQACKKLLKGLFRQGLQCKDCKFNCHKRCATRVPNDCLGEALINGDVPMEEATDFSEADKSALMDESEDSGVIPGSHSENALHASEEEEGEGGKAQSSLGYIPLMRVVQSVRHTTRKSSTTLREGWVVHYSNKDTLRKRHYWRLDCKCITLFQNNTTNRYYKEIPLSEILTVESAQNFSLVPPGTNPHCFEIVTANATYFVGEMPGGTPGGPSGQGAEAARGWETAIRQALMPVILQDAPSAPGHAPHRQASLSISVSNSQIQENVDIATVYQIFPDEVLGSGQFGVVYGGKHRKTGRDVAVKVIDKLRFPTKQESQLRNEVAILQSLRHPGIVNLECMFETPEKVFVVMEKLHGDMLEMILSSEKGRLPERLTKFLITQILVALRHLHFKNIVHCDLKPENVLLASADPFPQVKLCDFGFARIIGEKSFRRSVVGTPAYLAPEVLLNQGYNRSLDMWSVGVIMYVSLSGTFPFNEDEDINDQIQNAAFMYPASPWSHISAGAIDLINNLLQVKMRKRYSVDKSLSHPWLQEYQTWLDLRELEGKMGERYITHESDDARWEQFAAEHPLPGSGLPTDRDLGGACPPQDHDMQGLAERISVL
Procedure: as §1, §2

PRK1 = target: T27, PRK1 (Homo sapiens, UniProt Q16512)
T27 construct: purchased Invitrogen / ThermoFisher SelectScreen
Procedure: as §1, §2

Rse = target: T28, Rse (Homo sapiens, UniProt Q06418)
T28 construct: purchased Invitrogen / ThermoFisher SelectScreen
Procedure: as §1, §2

SGK1 = target: T29, SGK1 (Homo sapiens, UniProt O00141)
T29 construct: purchased Invitrogen / ThermoFisher SelectScreen
Procedure: as §1, §2

Syk = target: T30, Syk (Homo sapiens, UniProt P43405)
T30 construct: purchased Invitrogen / ThermoFisher SelectScreen
Procedure: as §1, §2

Tie2 = target: T31, Tie2 (Homo sapiens, UniProt Q02763)
T31 construct: purchased Invitrogen / ThermoFisher SelectScreen
Procedure: as §1, §2

Yes = target: T32, Yes (Homo sapiens, UniProt P07947)
T32 construct: purchased Invitrogen / ThermoFisher SelectScreen
Procedure: as §1, §2

COc1cc(C(N)=O)nc(-c2cccc(C#C[C@]3(O)CCN(C)C3=O)c2)c1 [NIK SMI1] gave an inhibition at 1 µM (AKT1) of 28.5%, an inhibition at 1 µM (AKT2) of 13% and an inhibition at 1 µM (CDK1/cyclinB) of 8.5%. The inhibition at 1 µM (CK1_epsilon1) was 6.5%, the inhibition at 1 µM (CK1_gamma2) was 8.5% and the inhibition at 1 µM (CK2_alpha1) was 4.5%. For the same compound, the inhibition at 1 µM (CLK1) was 4.5%, the inhibition at 1 µM (CLK2) was 25% and the inhibition at 1 µM (CamKIV) was 14.5%. The inhibition at 1 µM (DAPK1) was 15.1%, the inhibition at 1 µM (DCAMKL2) was 6.5% and the inhibition at 1 µM (EphA1) was 2.5%. For the same compound, the inhibition at 1 µM (Flt4) was 9%, the inhibition at 1 µM (GRK6) was 9% and the inhibition at 1 µM (IKK_epsilon) was 19%. The inhibition at 1 µM (IRAK1) was 1.8%, the inhibition at 1 µM (IRAK4) was -1.5% and the “% Inhibition” value (KHS1) was > 75% and 96%. It also gave an inhibition at 1 µM (MRCK_alpha) of 0.5%, an inhibition at 1 µM (Mer) of 3.5% and an inhibition at 1 µM (NEK4) of 11%. The inhibition at 1 µM (P38_delta) was 12.5%, the inhibition at 1 µM (PAK6) was 31.5% and the inhibition at 1 µM (PI3K- A) was -7.5%. For the same compound, the “% Inhibition” value (PKD1) was 79%, the inhibition at 1 µM (PKD1) was > 75% and the inhibition at 1 µM (PKD2) was 0%. It also gave an inhibition at 1 µM (PRK1) of 5.5%, an inhibition at 1 µM (Rse) of 12% and an inhibition at 1 µM (SGK1) of 5%. The inhibition at 1 µM (Syk) was -0.5%, the inhibition at 1 µM (Tie2) was 6% and the inhibition at 1 µM (Yes) was 0.5%.
